For data set [1], the system named is MDA-MB-231 breast cancer cells. As to the kind of experiment: Antiproliferative assay (crystal violet). The note with it: 96 h exposure; ± standard deviation, n = 2–4; read-out: IC50, antiproliferative effects, MDA-MB-231. It counts as cell-based, human. The procedure:
(§1) The antiproliferative effects were determined according to a previously published procedure. A volume of 100 µL of cell suspension of A549 cells, MDA-MB-231, HT-29 or Vero E6 cells was transferred into the wells of a 96-well plates and incubated at 37 °C under 5% CO2 for 72 h. […] The results were calculated as the mean values of three independent experiments, unless stated otherwise.

The test system of the next data set is A-549 lung cancer cells. As to the kind of experiment: Antiproliferative assay (crystal violet). Type of data set: cell-based, human. The following applies: 72 h exposure; ± standard deviation, n = 2–4; read-out: IC50, antiproliferative effects, A-549. The procedure:
as §1

The subject of data set [2] is HT-29 colon carcinoma cells. As to the kind of experiment: Antiproliferative assay (crystal violet). Type of data set: cell-based, human. The following applies: 72 h exposure; ± standard deviation, n = 2–4; read-out: IC50, antiproliferative effects, HT-29. How it is done:
as §1

The subject of data set [3] is Vero E6 non-tumorigenic epithelial kidney cells. As to the kind of experiment: Antiproliferative assay (crystal violet). It counts as cell-based, African green monkey. The following applies: 72 h exposure; ± standard deviation, n = 2–4; read-out: IC50, antiproliferative effects, Vero E6. The procedure: as §1
For data set [4], the system named is C. difficile strain IB136 (NCTC 14385), metronidazole-resistant. As to the kind of experiment: Antibacterial effects against C. difficile (anaerobic growth curves, OD600). It counts as cell-based, Clostridioides difficile. The procedure:
(§2) (provided by Ulrich Nübel, DSMZ Braunschweig) were maintained in prereduced BHIS medium (37 g/L BHI, oxoid, 5% yeast extract, 1% L-cysteine) in a Coy-Laboratories anaerobic chamber (85% N2, 10% CO2, 5% H2) at 37 °C. Freshly prepared cultures were incubated until the exponential growth phase (OD600 = 0.2–0.4) and were adjusted to 1 × 10^6 cfu/mL before inoculation. The test compounds were dissolved in DMSO and by two-fold dilution steps concentrations in the range from 200 µM to 0.39 µM in BIHS medium were obtained. The solutions (100µL) were added to 100 µL of a diluted C. difficile culture (total volume: 200 µL in BIHS, 5 × 10^5 C. difficile, 100–0.195 µM test compound per well). The OD600-values over a period of 48 h were measured with a LogPhase 600 4-plate reader (BioTek) and compared with blank BHIS.

The test system of data set [5] is C. difficile strain VPI10463 (ATCC 43255), metronidazole-sensitive. The data set is described as above. Type of data set: cell-based, Clostridioides difficile. The procedure:
as §2

For data set [6], the system named is C. difficile strain 1296^ T (DSM 1296), metronidazole-sensitive. The data set is described as above. It counts as cell-based, Clostridioides difficile. The note with it: strain 1296T. How it is done:
as §2

Data set [7] deals with A-549, HT-29, MDA-MB-231 and Vero E6 cells. As to the kind of experiment: Antiproliferative assay, summary over all cell lines. The note with it: all four cell lines; for 2c except MDA-MB-231; read-out: IC50 values, antiproliferative effects, all cell lines. It counts as cell-based. The procedure:
as §1

The subject of data set [8] is Enterococcus faecium (DSM 20477, ATCC 19434). As to the kind of experiment: MIC broth dilution, aerobic bacteria. It counts as cell-based. The note with it: 20 h at 37 °C, ± standard error, n ≥ 3. How it is done: (§3) The following strains were used and maintained at 37 °C in MHB (21 g/L Müller Hinton, pH 7.4) or TSY (30 g/L trypticase soy broth, 3 g/L yeast extract, pH 7.0–7.2) medium. Acinetobacter baumannii (DSM 30007, ATCC 19606) in MHB, Escherichia coli (DSM1116, ATCC 9637) in TSY, Klebsiella pneumoniae (DSM 11678, ATCC33495) in MHB, Pseudomonas aeruginosa PA7 (DSM 24068) in MHB, Enterococcus faecium (DSM 20477, ATCC 19434) in TSY, Staphylococcus aureus MRSA (DSM 11822, ICB 25701) in TSY). Minimum inhibitory concentration (MIC) values were determined following a standardized protocol in broth dilution assays. […] Starting inocula of 2–8 × 10^5 colony-forming units per ml in MHB or TSY media at 37 °C were used, and serial dilutions were carried out in 384-well microtiter plates in duplicate. […] The MIC values for the tested compounds were determined in three independent experiments by a curve-fitting procedure using the GraphPad Prism software (Graphpad Software, Inc.).
(In broth dilution the organism is exposed to a series of concentrations in liquid medium.)

The subject of data set [9] is Pseudomonas aeruginosa PA7 (DSM 24068). As to the kind of experiment: MIC broth dilution, aerobic bacteria. It counts as cell-based. The following applies: 20 h at 37 °C, ± standard error, n ≥ 3, read-out: MIC, P.aeruginosa. How it is done: as §3
Data set [10] concerns Klebsiella pneumoniae (DSM 11678, ATCC33495). As to the kind of experiment: MIC broth dilution, aerobic bacteria. It counts as cell-based. The following applies: 20 h at 37 °C, ± standard error, n ≥ 3, read-out: MIC, K. pneumoniae. The procedure: as §3
The test system of data set [11] is Acinetobacter baumannii (DSM 30007, ATCC 19606). As to the kind of experiment: MIC broth dilution, aerobic bacteria. Type of data set: cell-based. The note with it: 20 h at 37 °C, ± standard error, n ≥ 3. The procedure: as §3
The test system of data set [12] is Staphylococcus aureus MRSA (DSM 11822, ICB 25701). As to the kind of experiment: MIC broth dilution, aerobic bacteria. Type of data set: cell-based. The following applies: 20 h at 37 °C, ± standard error, n ≥ 3. The procedure: as §3
The target of data set [13] is T1, bacterial TrxR from E. coli (Escherichia coli, UniProt P0A9P4).
T1 construct: purchased Sigma-Aldrich
T1 sequence (P0A9P4 whole entry): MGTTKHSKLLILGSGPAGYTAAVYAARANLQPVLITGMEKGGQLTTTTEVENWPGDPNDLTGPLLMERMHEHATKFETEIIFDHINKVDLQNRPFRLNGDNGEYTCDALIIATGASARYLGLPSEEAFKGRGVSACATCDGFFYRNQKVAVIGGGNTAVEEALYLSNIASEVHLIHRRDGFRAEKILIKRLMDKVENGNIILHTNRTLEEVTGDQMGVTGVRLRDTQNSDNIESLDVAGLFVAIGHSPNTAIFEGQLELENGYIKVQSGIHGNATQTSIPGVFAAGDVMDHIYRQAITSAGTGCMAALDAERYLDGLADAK
As to the kind of experiment: Inhibition of bacterial TrxR (E. coli), DTNB/5-TNB assay. It counts as biochemical. The following applies: purified enzyme, 75 min incubation at 25 °C; means and standard deviations. The procedure:
The TrxR (E.coli) inhibition assay was performed according to a previously published procedure. It is partly based on the procedure developed by Lu et al.[35] and detects the formation of 5-TNB (5-thionitrobenzoic acid). Solutions of E. coli TrxR (35.4 U/mL) and of its substrate thioredoxin (Trx) E. coli (156 µg/mL) (both purchased from Sigma-Aldrich and diluted with distilled water) and fresh stock solutions of the test compounds (in DMF) were prepared (1c was administered as suspension). TE buffer (Tris–HCl 50 mM, EDTA 1 mM, pH 7.5) containing graded concentrations of the respective compounds (20 µL) or buffer without compounds (20 µL, as control) were mixed with TrxR solution (10 µL), Trx solution (10 µL), and a solution of NADPH (200 µM) in TE buffer (100 µL) in a well on a 96-well plate. As blank solution, 200 µM NADPH in TE buffer (100 µL) mixed with a DMF/buffer mixture (40 µL) was used (final concentrations of DMF: 0.5% v/v). The solutions on the 96-well plate were incubated for 75 min at 25 °C with moderate shaking. A volume of 100 µL of a reaction mixture (TE buffer containing 200 µM NADPH and 5 mM DTNB) was added to each well to initiate the reaction. After thorough mixing, the formation of 5-TNB was monitored by a microplate reader at 405 nm in 35 s intervals (10 measurements). The values were corrected by subtraction of the values for the blank solution. The increase in concentration of 5-TNB followed a linear trend (r^2 ≥ 0.990) and the enzymatic activities were calculated as the gradients (increase in absorbance per second) thereof. Absence of interference with the assay components was confirmed by a negative control experiment for each test compound. The highest test compound concentration was used and the enzyme solution was replaced by TE buffer for this purpose. The IC50 values were calculated as the concentration of the compound decreasing the enzymatic activity of the positive control by 50% and are presented as the means and standard deviations of independent repeated experiments.

Data set [14] deals with aerobic Gram-positive and Gram-negative pathogenic bacteria strains. As to the kind of experiment: MIC, summary over the panel of aerobic bacteria. The note with it: for MIC values against Gram-positive strains: MRSA and E. faecium, except for 1c in MRSA; for activity against Gram-negative strains (in words): aerobic conditions. Type of data set: cell-based. The procedure:
as §3

Data set [15] deals with Escherichia coli (DSM1116, ATCC 9637). As to the kind of experiment: MIC broth dilution, aerobic bacteria. Type of data set: cell-based. The note with it: 20 h at 37 °C, ± standard error, n ≥ 3. How it is done: as §3

The text below walks through data of PMC11343806 (Journal of Biological Inorganic Chemistry, 2024).

Each structure is given as a SMILES string.

For orientation: IC50 means the concentration that inhibits the measured activity by half. As a reminder, the MIC is the smallest concentration in the dilution series that meets the test's criterion for growth inhibition. Regarding `Cc1ncc([N+](=O)[O-])n1CCOC(=O)Cn1[c](=[Au][Cl])n(C)c2ccccc21` [Compound 2c, Chlorido-(1-methyl-3-(2-(2-(2-methyl-5-nitroimidazol-1-yl)ethoxy)-2-oxoethyl)-benzimidazol-2-yliden)gold(I)], the IC50 was 31.8 ± 4.1 µM in data set [1]; 81.9 ± 2.8 µM with A-549 lung cancer cells; 80.7 ± 5.9 µM in data set [2]; greater than 95 µM in data set [3]; greater than 60 µM in data set [7]; 0.175 ± 0.017 µM in [13]. In “Solubility observations”, the “solubility in organic solvents” value is reported as “soluble in most organic solvents”. The “concentration leading to a complete block of bacterial growth without recovery” value in [4] (metronidazole-resistant strain IB136, up to 100 µM, 48 h) was “blocked bacterial growth at the same concentration”; in [5] (strain VPI10463, up to 100 µM, 48 h), “blocked bacterial growth at the same concentration”; in data set [6] (up to 100 µM, 48 h) it was “blocked bacterial growth at the same concentration”. Also, the “antibacterial effect at 6.25 µM” value is reported as “strong effects with recovery of bacterial proliferation” in data set [4] (resistant strain IB136, 6.25 µM); “effective inhibitors” in data set [5] (strain VPI10463, 6.25 µM, recovery of growth after extended exposure); “effective inhibitors” in data set [6] (6.25 µM, recovery of growth after extended exposure). In data set [8], the “MIC, E. faecium” value was 43.3 ± 16.0 µM. In addition, the minimum inhibitory concentration (MIC) in data set [9], in data set [10] and in [11] was greater than 111.2 µM in each case. Also, the “MIC, MRSA” value in [12] turned out to be 37.1 ± 16.0 µM. In addition, the “MIC values against Gram-positive strains” value in [14] lay within 37 to 44 µM. The “activity against Gram-negative strains (in words)” value in data set [14] is “inactive”.
On to `CCn1[c](=[Au][Cl])n(CC)c2cc(C(=O)OCCn3c([N+](=O)[O-])cnc3C)ccc21` [Compound 1c, Chlorido-(1,3-diethyl-5-((2-(2-methyl-5-nitroimidazol-1-yl)ethoxy)carbonyl)benzimidazol-2-ylidene)gold(I)], for which the IC50 is greater than 100 µM in data set [1]; greater than 100 µM in the data set with A-549 lung cancer cells; greater than 100 µM in [2]; greater than 100 µM in data set [3]; greater than 60 µM in data set [7]; 0.145 ± 0.038 µM in data set [13]. Further, in “Solubility observations”, the “solubility in organic solvents” value is listed as “limited solubility in organic solvents”. Besides, in data set [8], the “MIC, E. faecium” value worked out at 44.2 ± 15.3 µM. Moreover, the minimum inhibitory concentration (MIC) in [9], in [10], in data set [11] and in data set [15] was greater than 106.0 µM in each case. The “MIC, MRSA” value in [12] worked out at 106.0 ± 0.0 µM. For the same molecule, the “MIC values against Gram-positive strains” value in [14] fell in the range of 37 to 44 µM. Moreover, in data set [14], the “activity against Gram-negative strains (in words)” value was “inactive”.
